Assay results: the NIST ThermoML archive (doi:10.1016/j.jct.2005.05.007)

Legend:
[1] = refractive index (Na D-line) (dimensionless); conditions: 298.15 K; 101.33 kPa; Liquid; Standard Abbe refractometry
[2] = 298.15 K; 101.33 kPa; Liquid; Vibrating tube method
[3] = xn = mol fraction of the nth substance listed; conditions: 298.15 K, 101 kPa, Liquid, Vibrating tube method

CCCCO [butan-1-ol]
Conditions | mass density [kg/m3] | refractive index
[1] | – | 1.397
[2] | 805.8 | –

CCO [ethanol]
Conditions | mass density [kg/m3] | refractive index
[1] | – | 1.3593
[2] | 785.1 | –

CO [methanol]
Conditions | mass density [kg/m3] | refractive index
[1] | – | 1.3265
[2] | 786.6 | –

CCCCCO [pentan-1-ol]
Conditions | mass density [kg/m3] | refractive index
[1] | – | 1.4078
[2] | 810.8 | –

CCCO [propan-1-ol]
Conditions | mass density [kg/m3] | refractive index
[1] | – | 1.3834
[2] | 799.6 | –

CC(C)O [propan-2-ol]
Conditions | mass density [kg/m3] | refractive index
[1] | – | 1.3748
[2] | 780.9 | –

CCC#N [propanenitrile]
Conditions | mass density [kg/m3] | refractive index
[1] | – | 1.3633
[2] | 776.8 | –

CCC#N [propanenitrile] + CC(C)O
[3]
Conditions | mass density [kg/m3]
x2 = 0.0579 | 776.1
x2 = 0.0955 | 775.8
x2 = 0.1396 | 775.5
x2 = 0.183 | 775.4
x2 = 0.2321 | 775.3
x2 = 0.2775 | 775.4
x2 = 0.3274 | 775.5
x2 = 0.3784 | 775.6
x2 = 0.4249 | 775.8
x2 = 0.4768 | 776
x2 = 0.5385 | 776.4
x2 = 0.5752 | 776.6
x2 = 0.6307 | 777
x2 = 0.6763 | 777.4
x2 = 0.7286 | 777.9
x2 = 0.7788 | 778.4
x2 = 0.8384 | 779.1
x2 = 0.8929 | 779.7
x2 = 0.9416 | 780.2

CCC#N [propanenitrile] + CCCCCO
[3]
Conditions | mass density [kg/m3]
x2 = 0.0353 | 778.3
x2 = 0.0649 | 779.6
x2 = 0.1026 | 781.1
x2 = 0.1379 | 782.6
x2 = 0.1786 | 784.2
x2 = 0.2164 | 785.7
x2 = 0.2613 | 787.5
x2 = 0.3031 | 789.1
x2 = 0.3464 | 790.7
x2 = 0.3917 | 792.4
x2 = 0.4396 | 794.1
x2 = 0.489 | 795.8
x2 = 0.5444 | 797.7
x2 = 0.6012 | 799.5
x2 = 0.6547 | 801.2
x2 = 0.7186 | 803.2
x2 = 0.7788 | 804.9
x2 = 0.8488 | 806.9
x2 = 0.9162 | 808.7

CCC#N [propanenitrile] + CCCCO
[3]
Conditions | mass density [kg/m3]
x2 = 0.0391 | 778
x2 = 0.1177 | 780.4
x2 = 0.1625 | 781.8
x2 = 0.1984 | 782.9
x2 = 0.2481 | 784.4
x2 = 0.3398 | 787.4
x2 = 0.385 | 788.7
x2 = 0.4364 | 790.2
x2 = 0.4813 | 791.6
x2 = 0.539 | 793.3
x2 = 0.5821 | 794.6
x2 = 0.6363 | 796.2
x2 = 0.7036 | 798.1
x2 = 0.7441 | 799.2
x2 = 0.8103 | 801
x2 = 0.8795 | 802.8
x2 = 0.9334 | 804.1

CCC#N [propanenitrile] + CCCO
[3]
Conditions | mass density [kg/m3]
x2 = 0.0465 | 777.6
x2 = 0.0955 | 778.5
x2 = 0.143 | 779.4
x2 = 0.1882 | 780.3
x2 = 0.2387 | 781.4
x2 = 0.2837 | 782.4
x2 = 0.3347 | 783.6
x2 = 0.3775 | 784.6
x2 = 0.4341 | 786
x2 = 0.4827 | 787.2
x2 = 0.5841 | 789.7
x2 = 0.6371 | 791
x2 = 0.7389 | 793.5
x2 = 0.7795 | 794.5
x2 = 0.8329 | 795.8
x2 = 0.8919 | 797.2
x2 = 0.9355 | 798.2

CCC#N [propanenitrile] + CCO
[3]
Conditions | mass density [kg/m3]
x2 = 0.0627 | 776.8
x2 = 0.129 | 777
x2 = 0.1754 | 777.2
x2 = 0.2486 | 777.6
x2 = 0.2872 | 777.9
x2 = 0.3419 | 778.4
x2 = 0.3978 | 778.9
x2 = 0.4563 | 779.5
x2 = 0.5001 | 780
x2 = 0.5577 | 780.6
x2 = 0.6025 | 781.1
x2 = 0.6433 | 781.6
x2 = 0.6925 | 782.2
x2 = 0.7416 | 782.7
x2 = 0.7823 | 783.2
x2 = 0.8218 | 783.6
x2 = 0.8737 | 784.2
x2 = 0.9146 | 784.6
x2 = 0.9565 | 784.9

CCC#N [propanenitrile] + CO
[3]
Conditions | mass density [kg/m3]
x2 = 0.0822 | 777.3
x2 = 0.1672 | 777.9
x2 = 0.2338 | 778.4
x2 = 0.2992 | 779
x2 = 0.3634 | 779.7
x2 = 0.4258 | 780.3
x2 = 0.4879 | 781
x2 = 0.5403 | 781.6
x2 = 0.5844 | 782.1
x2 = 0.6226 | 782.6
x2 = 0.6752 | 783.3
x2 = 0.7183 | 783.8
x2 = 0.763 | 784.4
x2 = 0.7996 | 784.8
x2 = 0.8366 | 785.3
x2 = 0.8743 | 785.8
x2 = 0.9088 | 786.1
x2 = 0.9384 | 786.3
x2 = 0.9696 | 786.5
